Reference: patent US11524951B2, “2-(2,4,5-substituted-anilino)pyrimidine compounds” (AstraZeneca AB, priority 2011, dated 2022)

Tests used:
Type in all cases: cell-based
Exon19 deletion EGFR = target: T1, Exon19 deletion EGFR (Homo sapiens, UniProt P00533, DEL746-750); assay: Exon19 deletion EGFR (activating single mutant) cellular phosphorylation assay; details: PC9 human lung cells (Exon 19 deletion EGFR); endogenous p-EGFR in cell lysates by ELISA; 2 h with compound; read-out: Assay 1 (IC50)
T1 construct: Assays to measure cellular phosphorylation of endogenous p-EGFR in cell lysates; endogenous in cells; host or cells: PC9 (human lung cell line)
Protocol: Assay 1: Exon19 Deletion EGFR (Activating Single Mutant) Cellular Phosphorylation Assay
The human lung cell line PC9 (Exon 19 deletion EGFR) were obtained from the American type Culture Collection. […] Cells were grown in a humidified incubator at 37° C. with 5% CO2. Assays to measure cellular phosphorylation of endogenous p-EGFR in cell lysates were carried out according to the protocol described in the R&D Systems DuoSet IC Human Phospho-EGF R ELISA (R&D Systems catalogue number #DYC1095). 40 μL of cells were seeded (10000 cells/well) in growth medium in Corning black, clear-bottomed 384-well plates and incubated at 37° C. with 5% CO2 overnight. […] Plates were incubated for a further 2 h, then following aspiration of medium, 40 μL 1× lysis buffer was added to each well. Greiner black high bind 384-well plates were coated with capture antibody and then blocked with 3% BSA. Following removal of block, […], of lysate were transferred to the Greiner black high bind 384-well plates and incubated for 2 hours. Following aspiration and washing of the plates with PBS, 20 μL of detection antibody were added and incubated for 2 hours. […] The data obtained with each compound was exported into a suitable software package (such as Origin) to perform curve fitting analysis.

Wild-type EGFR = target: T2, Wild-type EGFR (Homo sapiens, UniProt P00533); assay: Wild-type EGFR cellular phosphorylation assay; details: LoVo human colon cells; endogenous p-EGFR in cell lysates by ELISA; 2 h with compound, then stimulated 100 ng/ml for 10 minutes; read-out: Assay 3 (IC50)
T2 construct: Assays to measure cellular phosphorylation of endogenous p-EGFR in cell lysates; endogenous in cells; host or cells: LoVo (human colon cell line)
Protocol: Assay 3: Wild-Type EGFR Cellular Phosphorylation Assay
The human colon cell line LoVo were obtained from the American type Culture Collection. […] Cells were grown in a humidified incubator at 37° C. with 5% CO2. Assays to measure cellular phosphorylation of endogenous p-EGFR in cell lysates were carried out according to the protocol described in the R&D Systems DuoSet IC Human Phospho-EGF R ELISA (R&D Systems catalogue number #DYC1095). 40 μL of cells were seeded (15000 cells/well) in growth medium in Corning black, clear-bottomed 384-well plates and incubated at 37° C. with 5% CO2 overnight. […] Plates were incubated for a further 2 h then stimulated with 100 ng/ml for 10 minutes and following aspiration of medium, 40 μL 1× lysis buffer was added to each well. Greiner black high bind 384-well plates were coated with capture antibody and then blocked with 3% BSA. […] Following aspiration and washing of the plates with PBS, 20 μL of detection antibody were added and incubated for 2 hours. […] The data obtained with each compound was exported into a suitable software package (such as Origin) to perform curve fitting analysis.

L858R/T790M EGFR = target: T3, L858R/T790M EGFR (Homo sapiens, UniProt P00533, L858R/T790M); assay: L858R/T790M EGFR (double mutant) cellular phosphorylation assay; details: NCI-H1975 human lung cells; endogenous p-EGFR in cell lysates by ELISA; 2 h with compound
T3 construct: Assays to measure cellular phosphorylation of endogenous p-EGFR in cell lysates; endogenous in cells; host or cells: NCI-H1975 (human lung cell line)
Protocol: Assay 2: L858R/T790M EGFR (Double Mutant) Cellular Phosphorylation Assay
The human lung cell lines NCI-H1975 were obtained from the American type Culture Collection. […] Cells were grown in a humidified incubator at 37° C. with 5% CO2.
Assays to measure cellular phosphorylation of endogenous p-EGFR in cell lysates were carried out according to the protocol described in the R&D Systems DuoSet IC Human Phospho-EGF R ELISA (R&D Systems catalogue number #DYC1095).
40 μL of cells were seeded (10000 cells/well) in growth medium in Corning black, clear-bottomed 384-well plates and incubated at 37° C. with 5% CO2 overnight. […] Plates were incubated for a further 2 h and following aspiration of medium, 40 μL 1× lysis buffer was added to each well. Greiner black high bind 384-well plates were coated with capture antibody and then blocked with 3% BSA. Following removal of block, 15 μL of lysate were transferred to the Greiner black high bind 384-well plates and incubated for 2 hours. Following aspiration and washing of the plates with PBS, 20 μL of detection antibody were added and incubated for 2 hours. […] 20 μL QuantaBlu stop solution were added to plates and fluorescence read on an Envision plate reader using
The data obtained with each compound was exported into a suitable software package (such as Origin) to perform curve fitting analysis.

T2 sequence (P00533 25-1210): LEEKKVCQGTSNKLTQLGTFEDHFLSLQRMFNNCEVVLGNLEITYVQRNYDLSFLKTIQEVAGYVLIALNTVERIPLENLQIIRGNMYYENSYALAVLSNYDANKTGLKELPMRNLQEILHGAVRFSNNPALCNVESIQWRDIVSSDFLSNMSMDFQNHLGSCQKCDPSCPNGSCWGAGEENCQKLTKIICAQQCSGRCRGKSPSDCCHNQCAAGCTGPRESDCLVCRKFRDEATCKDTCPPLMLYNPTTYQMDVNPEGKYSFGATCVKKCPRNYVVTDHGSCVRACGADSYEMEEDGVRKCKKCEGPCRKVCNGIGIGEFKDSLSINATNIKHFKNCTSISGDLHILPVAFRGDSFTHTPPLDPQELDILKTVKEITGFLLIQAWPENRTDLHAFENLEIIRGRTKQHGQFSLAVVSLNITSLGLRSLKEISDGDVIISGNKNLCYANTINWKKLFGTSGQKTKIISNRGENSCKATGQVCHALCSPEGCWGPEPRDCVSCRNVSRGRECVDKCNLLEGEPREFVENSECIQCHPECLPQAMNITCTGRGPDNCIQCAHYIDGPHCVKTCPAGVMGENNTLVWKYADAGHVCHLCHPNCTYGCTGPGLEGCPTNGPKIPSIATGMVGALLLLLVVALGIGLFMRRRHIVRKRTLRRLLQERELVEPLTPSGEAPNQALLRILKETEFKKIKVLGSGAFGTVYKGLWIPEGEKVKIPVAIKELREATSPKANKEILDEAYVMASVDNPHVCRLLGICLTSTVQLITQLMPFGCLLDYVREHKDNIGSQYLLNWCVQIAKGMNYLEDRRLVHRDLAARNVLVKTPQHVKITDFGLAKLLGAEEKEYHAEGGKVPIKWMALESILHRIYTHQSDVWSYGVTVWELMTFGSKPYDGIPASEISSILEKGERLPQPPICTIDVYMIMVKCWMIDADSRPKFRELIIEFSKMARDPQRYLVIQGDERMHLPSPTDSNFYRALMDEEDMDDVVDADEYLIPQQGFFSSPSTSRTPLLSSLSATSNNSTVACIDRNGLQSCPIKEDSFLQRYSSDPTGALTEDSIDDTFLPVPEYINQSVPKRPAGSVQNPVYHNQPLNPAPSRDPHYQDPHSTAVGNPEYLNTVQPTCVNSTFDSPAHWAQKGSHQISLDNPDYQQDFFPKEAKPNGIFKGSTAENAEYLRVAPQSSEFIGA
T3 sequence (P00533 25-1210 T790M/L858R): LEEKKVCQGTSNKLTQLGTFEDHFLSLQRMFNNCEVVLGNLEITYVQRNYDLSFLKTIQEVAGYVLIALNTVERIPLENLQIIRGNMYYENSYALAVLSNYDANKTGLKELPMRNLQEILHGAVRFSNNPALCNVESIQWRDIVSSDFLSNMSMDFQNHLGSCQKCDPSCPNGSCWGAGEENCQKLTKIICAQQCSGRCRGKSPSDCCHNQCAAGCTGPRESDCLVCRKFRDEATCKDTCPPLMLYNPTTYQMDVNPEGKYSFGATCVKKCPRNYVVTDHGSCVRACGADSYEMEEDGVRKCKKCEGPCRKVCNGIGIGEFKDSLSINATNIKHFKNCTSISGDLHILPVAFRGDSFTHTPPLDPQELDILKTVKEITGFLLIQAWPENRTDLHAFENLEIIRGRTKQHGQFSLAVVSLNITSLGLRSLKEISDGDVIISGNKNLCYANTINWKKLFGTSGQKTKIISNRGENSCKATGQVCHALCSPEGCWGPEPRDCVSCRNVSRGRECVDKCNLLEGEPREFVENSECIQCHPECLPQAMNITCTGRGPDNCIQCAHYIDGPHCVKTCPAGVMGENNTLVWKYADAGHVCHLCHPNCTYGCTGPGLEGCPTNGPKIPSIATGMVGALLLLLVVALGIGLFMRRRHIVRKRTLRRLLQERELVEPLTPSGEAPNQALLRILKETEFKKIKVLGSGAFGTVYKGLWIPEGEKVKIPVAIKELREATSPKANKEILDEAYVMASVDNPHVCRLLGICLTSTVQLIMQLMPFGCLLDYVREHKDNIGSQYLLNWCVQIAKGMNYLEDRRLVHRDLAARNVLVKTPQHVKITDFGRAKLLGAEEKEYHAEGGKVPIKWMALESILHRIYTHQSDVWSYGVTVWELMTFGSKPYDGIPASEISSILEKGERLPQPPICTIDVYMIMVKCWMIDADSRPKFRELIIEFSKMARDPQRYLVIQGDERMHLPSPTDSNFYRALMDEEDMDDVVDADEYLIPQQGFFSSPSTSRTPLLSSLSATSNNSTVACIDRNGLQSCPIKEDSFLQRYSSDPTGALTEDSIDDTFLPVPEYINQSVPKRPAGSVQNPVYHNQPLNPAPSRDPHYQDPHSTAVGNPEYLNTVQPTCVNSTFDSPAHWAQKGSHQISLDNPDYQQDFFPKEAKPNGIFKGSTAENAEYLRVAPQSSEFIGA
T1 sequence (P00533 with tags, fused parts or gaps DEL746-750): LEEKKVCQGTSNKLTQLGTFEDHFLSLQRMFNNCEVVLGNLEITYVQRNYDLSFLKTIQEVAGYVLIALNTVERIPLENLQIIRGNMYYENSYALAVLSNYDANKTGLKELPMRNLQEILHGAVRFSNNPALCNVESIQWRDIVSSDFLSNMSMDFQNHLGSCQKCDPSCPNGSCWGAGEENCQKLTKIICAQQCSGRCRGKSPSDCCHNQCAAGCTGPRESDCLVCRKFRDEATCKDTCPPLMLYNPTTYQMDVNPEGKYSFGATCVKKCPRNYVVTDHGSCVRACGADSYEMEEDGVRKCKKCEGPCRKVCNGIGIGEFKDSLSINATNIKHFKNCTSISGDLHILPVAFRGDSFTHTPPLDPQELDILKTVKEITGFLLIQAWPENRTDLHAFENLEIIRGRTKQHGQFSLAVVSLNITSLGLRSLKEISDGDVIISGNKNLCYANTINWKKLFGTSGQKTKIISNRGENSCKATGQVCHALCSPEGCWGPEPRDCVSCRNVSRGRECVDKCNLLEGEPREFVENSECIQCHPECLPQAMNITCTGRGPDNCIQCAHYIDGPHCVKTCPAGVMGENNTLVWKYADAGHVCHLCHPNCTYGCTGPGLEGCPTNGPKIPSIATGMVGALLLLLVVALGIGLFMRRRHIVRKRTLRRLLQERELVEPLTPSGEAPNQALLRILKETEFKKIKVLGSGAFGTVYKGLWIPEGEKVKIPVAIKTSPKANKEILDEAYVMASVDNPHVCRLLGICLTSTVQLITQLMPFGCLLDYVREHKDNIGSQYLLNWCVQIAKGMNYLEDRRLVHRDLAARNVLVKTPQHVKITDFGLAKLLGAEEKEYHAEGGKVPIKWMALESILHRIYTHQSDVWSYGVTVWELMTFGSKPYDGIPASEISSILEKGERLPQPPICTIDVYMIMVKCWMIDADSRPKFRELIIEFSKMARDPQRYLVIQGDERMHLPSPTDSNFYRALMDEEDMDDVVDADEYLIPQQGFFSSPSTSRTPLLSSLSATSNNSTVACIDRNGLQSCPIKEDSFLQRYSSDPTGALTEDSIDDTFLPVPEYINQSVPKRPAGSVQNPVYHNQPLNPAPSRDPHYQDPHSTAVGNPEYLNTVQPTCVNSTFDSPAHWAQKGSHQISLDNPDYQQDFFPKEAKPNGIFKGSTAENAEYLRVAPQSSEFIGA

IC50 (Exon19 deletion EGFR) [nM] | IC50 (Wild-type EGFR) [nM] | IC50 (L858R/T790M EGFR) [nM] | SMILES
28.6 | 1840 | 29.5 | C=CC(=O)Nc1cc(Nc2nccc(-c3cn(C)c4ccccc34)n2)c(OC)cc1N1CC[C@@H]2CN(C)C[C@@H]21 [Example 41, N-(2-{(3aR,6aR)-5-Methyl-2,3,3a,4,6,6a-hexahydropyrrolo[3,4-b]pyrrol-1-yl}-4-methoxy-5-{[4-(1-methylindol-3-yl)pyrimidin-2-yl]amino}phenyl)prop-2-enamide]
1.29 | 41.2 | 1.5 | C=CC(=O)Nc1cc(Nc2ncc(Cl)c(-c3c[nH]c4ccccc34)n2)c(OC)cc1C1=CCN(C)CC1 [Example 2, N-(5-{[5-Chloro-4-(1H-indol-3-yl)pyrimidin-2-yl]amino}-4-methoxy-2-[1-methyl-3,6-dihydro-2H-pyridin-4-yl]phenyl)prop-2-enamide]
3.22 | 183 | 2.8 | C=CC(=O)Nc1cc(Nc2nccc(-c3cnn4ccccc34)n2)c(OC)cc1N(C)CCN(C)C [Example 54, N-{2-[2-Dimethylaminoethyl-methylamino]-4-methoxy-5-[(4-pyrazolo[1,5-a]pyridin-3-ylpyrimidin-2-yl)amino]phenyl}prop-2-enamide]
43.3 | 1050 | 32.7 | C=CC(=O)Nc1cc(Nc2nccc(-c3cn(C)c4ccccc34)n2)c(OC)cc1N1CC(N(C)C)C1 [Example 36, N-(2-{3-Dimethylaminoazetidin-1-yl}-4-methoxy-5-{[4-(1-methylindol-3-yl)pyrimidin-2-yl]amino}phenyl)prop-2-enamide]
2.18 | 196 | 0.669 | C=CC(=O)Nc1cc(Nc2ncc(Cl)c(-c3cnn4ccccc34)n2)c(OC)cc1N(C)CCN(C)C [Example 6, N-{5-[(5-Chloro-4-pyrazolo[1,5-a]pyridin-3-ylpyrimidin-2-yl)amino]-2-[2-dimethylaminoethyl-methylamino]-4-methoxyphenyl}prop-2-enamide]
3.26 | 161 | 0.682 | C=CC(=O)Nc1cc(Nc2ncc(Cl)c(-c3cnn4ccccc34)n2)c(OC)cc1N1CC[C@@H]2CN(C)C[C@@H]21 [Example 7, N-{2-[(3aR,6aR)-5-Methyl-2,3,3a,4,6,6a-hexahydropyrrolo[3,2-c]pyrrol-1-yl]-5-[(5-chloro-4-pyrazolo[1,5-a]pyridin-3-ylpyrimidin-2-yl)amino]-4-methoxyphenyl}prop-2-enamide]
22.4 | 1170 | 5.48 | C=CC(=O)Nc1cc(Nc2ncc(Cl)c(-c3cnn4ccccc34)n2)c(OC)cc1N1CC2(CCCN2C)C1 [Example 8, N-{5-[(5-Chloro-4-pyrazolo[1,5-a]pyridin-3-ylpyrimidin-2-yl)amino]-4-methoxy-2-[5-methyl-2,5-diazaspiro[3.4]octan-2-yl]phenyl}prop-2-enamide]
36.1 | 1390 | 5.82 | C=CC(=O)Nc1cc(Nc2ncc(Cl)c(-c3cnn4ccccc34)n2)c(OC)cc1N1CC[C@H](N(C)C)C1 [Example 12, N-{5-[(5-Chloro-4-pyrazolo[1,5-a]pyridin-3-ylpyrimidin-2-yl)amino]-2-[(3S)-3-dimethylaminopyrrolidin-1-yl]-4-methoxyphenyl}prop-2-enamide]
14 | 1070 | 55.2 | C=CC(=O)Nc1cc(Nc2nccc(-c3c[nH]c4ccccc34)n2)c(OC)cc1N1CCN(C)CC1 [Example 15, N-(5-{[4-(1H-Indol-3-yl)pyrimidin-2-yl]amino}-4-methoxy-2-{4-methylpiperazin-1-yl}phenyl)prop-2-enamide]
7.08 | 179 | 16.8 | C=CC(=O)Nc1cc(Nc2nccc(-c3c[nH]c4ccccc34)n2)c(OC)cc1N1CC(N(C)C)C1 [Example 58, N-(2-[3-Dimethylaminoazetidin-1-yl]-5-{[4-(1H-indol-3-yl)pyrimidin-2-yl]amino}-4-methoxyphenyl)prop-2-enamide]
110 | 7400 | 41 | C=CC(=O)Nc1cc(Nc2nccc(-c3cnn4c3CCCC4)n2)c(OC)cc1C1=CCN(C)CC1 [Example 45, N-(4-Methoxy-2-{1-methyl-3,6-dihydro-2H-pyridin-4-yl}-5-{[4-(4,5,6,7-tetrahydropyrazolo[1,5-a]pyridin-3-yl)pyrimidin-2-yl]amino}phenyl)prop-2-enamide]
66.4 | 2700 | 31.4 | C=CC(=O)Nc1cc(Nc2ncc(C)c(-c3cn(C)c4ccccc34)n2)c(OC)cc1N1CCN(C)CC1 [Example 18, N-(4-Methoxy-5-{[5-methyl-4-(1-methylindol-3-yl)pyrimidin-2-yl]amino}-2-{4-methylpiperazin-1-yl}phenyl)prop-2-enamide]
5.19 | 454 | 5.16 | C=CC(=O)Nc1cc(Nc2nccc(-c3cnn4c3CCCC4)n2)c(OC)cc1N(C)CCN(C)C [Example 42, N-(2-{2-Dimethylaminoethyl-methylamino}-4-methoxy-5-{[4-(4,5,6,7-tetrahydropyrazolo[1,5-a]pyridin-3-yl)pyrimidin-2-yl]amino}phenyl)prop-2-enamide]
194 | 15400 | 119 | C=CC(=O)Nc1cc(Nc2nccc(-c3cnn4c3CCCC4)n2)c(OC)cc1N1CC2(CCCN2C)C1 [Example 47, N-(4-Methoxy-2-{8-methyl-2,8-diazaspiro[3.4]octan-2-yl}-5-{[4-(4,5,6,7-tetrahydropyrazolo[1,5-a]pyridin-3-yl)pyrimidin-2-yl]amino}phenyl)prop-2-enamide]
26 | 1400 | 15 | C=CC(=O)Nc1cc(Nc2nccc(-c3cnn4ccccc34)n2)c(OC)cc1N1CC[C@@H](N(C)C)C1 [Example 52, N-{2-[(3R)-3-Dimethylaminopyrrolidin-1-yl]-4-methoxy-5-[(4-pyrazolo[1,5-a]pyridin-3-ylpyrimidin-2-yl)amino]phenyl}prop-2-enamide]
2.34 | 248 | 1.01 | C=CC(=O)Nc1cc(Nc2ncc(C#N)c(-c3cnn4ccccc34)n2)c(OC)cc1N(C)CCN(C)C [Example 39, N-{5-[(5-Cyano-4-pyrazolo[1,5-a]pyridin-3-ylpyrimidin-2-yl)amino]-2-[2-dimethylaminoethyl-methylamino]-4-methoxyphenyl}prop-2-enamide]
6.45 | 89.3 | 14.5 | C=CC(=O)Nc1cc(Nc2nccc(-c3c[nH]c4ccccc34)n2)c(OC)cc1N1CC[C@@H](N(C)C)C1 [Example 57, N-(2-{(3R)-3-Dimethylaminopyrrolidin-1-yl}-5-{[4-(1H-indol-3-yl)pyrimidin-2-yl]amino}-4-methoxyphenyl)prop-2-enamide]
